From patent publication US12161694B2, “Methods and compositions for regulating innate lymphoid cell inflammatory responses” (The Broad Institute, Inc., priority 2017, dated 2024)
Where no end group is shown, it is not given here.

Tested on: lung-resident ILCs
Assay: Flow cytometry of lung ILCs after in vivo treatment (Ki-67, ILC frequency, IL-17RB, surface and intracellular markers)
Design: species or system mouse
From the text: Mice and in vivo ILC activation. C57Bl/6J mice were purchased from the Jackson Laboratory. Nmur1-LacZ reporter mice with a LacZ cassette knocked into the Nmur1 locus were rederived from Nmur1^tm1.1(KOMP)Vleg sperm obtained from the trans-NIH Knock-Out Mouse Project (KOMP) Repository. Mice were housed under specific-pathogen-free conditions. For experiments, mice were matched for sex and age, and most mice were 6-10 weeks old. Where indicated, mice were anesthetized with Isoflurane and treated intranasally with the indicated stimuli (500 ng IL-25, 500 ng IL-33, or 20 μg Neuromedin U) daily for three consecutive days. The total administered volume was 20 μl for all conditions. Mice were randomly assigned to treatment groups after matching for sex and age. […] Mice were treated intranasally with 10 μg HDM on day 0, 7, 8, and 9, prior to sacrifice on day 10. […]
Flow cytometry. […] Cells were stained on ice with antibodies for surface molecules and the live/dead marker 7AAD and analyzed on a LSRFortessa (BD Biosciences). […]
Lung analysis. […] BALF was centrifuged, and the supernatant was used for analyzing cytokine levels and the cell pellet was resuspended, counted, and used for flow cytometry. […] Where indicated, cells were diluted in 10% Trypan Blue and viable cells counted using a hemocytometer. […]

With “Neuromedin U (FRVDEEFQSPFASQSRGYFLFRPRN-NH2; listed as Homo sapiens) [NMU, neuropeptide ligand of Nmur1 (US Biological)]” the “Galectin-3 (Lgals3) and gp49 (Lilrb4a) expression on ILCs” value was “up-regulated”.
